Measurements taken from patent US20250145631A1, “HETEROCYCLIC COMPOUND ACTING ON G12D MUTANT KRAS PROTEIN” (Astellas Pharma Inc., priority 2022, published 2025).

What follows are molecules tested on human G12D mutant KRAS-positive pancreatic cancer line AsPC-1 (assay: Non-anchorage-dependent cell growth inhibitory effect, spheroid 3D culture (Test Example 3)). Details: ASPC1, 144 h, AsPC-1 spheroid 3D culture, 6 days, CellTiter Glo 2.0, read-out: IC50 (non-anchorage-dependent cell growth inhibition).
Assay type: cell-based
Experimental: The non-anchorage-dependent cell growth inhibitory effect of test compounds was evaluated by spheroid 3D cell culture.
AsPC-1 cells were seeded on low-cell-adhesive round bottom 384-well plates (PrimeSurface: from Sumitomo Bakelite) at 20 μL (or […])/well to give 5×10^2 cells per well. As for the cell culture conditions, RPMI 1640 medium containing 10% fetal bovine serum was used in the presence of 5% CO2 at 37° C.
The next day, the test compounds (10 points or 6 points having final concentrations in the range of 10 μM to 0.3 nM) and DMSO, which was the solvent for the test compounds, as a negative control were diluted 500-fold (or 100-fold) with a fresh medium and were added at 20 μL (or […]) per well. After culturing in the presence of 5% C02 at 37° C. for 6 days, CellTiter Glo 2.0 (from Promega) was added at 20 μL per well. After stirring with a plate mixer (from FINEPCR) at normal temperature for 1 hour, the luminescent signals were measured with ARVO X3 (from PerkinElmer).
With the signaling value in treatment with DMSO taken as 100% and with the signaling value in the medium alone without cells taken as 0%, the 50% inhibitory concentration values (IC50) were calculated by Sigmoid-Emax nonlinear regression analysis. The calculated 50% inhibition represents the inhibition at the highest concentration evaluated (10 μM) for a compound that exceeds the concentration in the evaluation range.
In the tables presented below, Ex represents Example No. The IC50 of Ex. 13, Ex. 15, and Ex. 16 were calculated using the molecular weights as tetrahydrochloride, and the IC50 of Ex. 14 was calculated using the molecular weight as trihydrochloride.

SMILES | IC50
Cc1c(F)cc2[nH]ncc2c1-c1c(C2CC2)cc2c(N3C[C@@H]4C[C@H]3CN4)nc(OC3CCOCC3)nc2c1OCc1ccc(C(=O)N2CCN(Cc3ccc4c(c3)cc(N3CCC(=O)NC3=O)c(=O)n4C)C[C@@H]2C)cc1 (atropisomer, axis not shown) [Example 46] | 1280 nM
Cc1c(F)cc2[nH]ncc2c1-c1c(C2CC2)cc2c(N3C[C@@H]4C[C@H]3CN4)nc(OC3CCOCC3)nc2c1OCc1ccc(C(=O)N2CCN(Cc3ccc4c(c3)n(C)c(=O)n4N3CCC(=O)NC3=O)C[C@@H]2C)cc1 (atropisomer, axis not shown) [Example 47] | 448 nM
CO[C@@H](C)COc1nc(N2CCNCC2)c2cc(C3CC3)c(-c3c(C)c(F)cc4[nH]ncc34)c(OCc3ccc(C(=O)N4CCN(Cc5ccc6c(c5)n(C)c(=O)n6C5CCC(=O)NC5=O)C[C@@H]4C)cc3)c2n1 (stereo partly shown) [Example 45] | 162 nM
Cc1c(F)cc2[nH]ncc2c1-c1c(C2CC2)nc2c(N3C[C@@H]4C[C@H]3CN4)nc(OC3CCOCC3)nc2c1OCc1ccc(C(=O)N2CCN(Cc3ccc4c(c3)n(C)c(=O)n4C3CCC(=O)NC3=O)C[C@@H]2C)cc1 (stereo partly shown) [Example 48] | 161 nM
